According to patent publication US20210023074A1, “TREATMENT OF DEMYELINATING DISEASES” (Victoria Link Ltd., priority 2018, published 2021):
Entries after “also recorded” stand apart in the source; their conditions may differ.

Test system: experimental autoimmune encephalomyelitis (EAE) mice
Assay: EAE model of MS, disease score, treatment from day of disease onset (score >1)
Type: in vivo, C57BL/6 mice
Protocol: Experimental detail: EAE was induced in female C57BL/6 mice as described in Example 1. On the day of disease onset (score >1, dotted line), mice were started on daily treatment with vehicle only (Veh) or nalmefene (NaIM) at 0.1, 0.03, 0.01, or 0.003 mg/kg by i.p. injection. […]
(§1) Experimental detail: EAE was induced in female C57BL/6 mice as described in Example 1. On the day of disease onset (score >1, dotted line), mice were treated with vehicle only (daily), nalmefene (0.01 mg/kg by i.p. injection daily), the KOR antagonist norBNI (10 mg/kg by i.p. injection weekly), both nalmefene and norBNI, or the MOR antagonist BFNA (10 mg/kg by i.p. injection weekly).
as §1, with “weekly). The peak disease score during the first EAE episode was recorded, and mice were considered recovered if they received a score <0.5 by day 23 post treatment initiation.” for “weekly).”
Experimental detail: EAE was induced in female C57BL/6 mice as described in Example 1.

## COC(=O)/C=C/C(=O)N[C@@H]1CC[C@@]2(O)[C@H]3Cc4ccc(O)c5c4[C@@]2(CCN3CC2CC2)[C@H]1O5 [BFNA]
10 mg/kg i.p. weekly from disease onset
  recovery from paralysis (disease score): does not enable recovery

## CN1CCC[C@@H]1CCO[C@](C)(c1ccccc1)c1ccc(Cl)cc1 [clemastine fumerate]
Nalmefene 0.01 mg/kg i.p. daily, clemastine fumerate 10 mg/kg i.p.
  number of days in recovery (sustained recovery): recovery is not sustained

## Oc1ccc2c3c1O[C@H]1c4[nH]c5c(c4C[C@@]4(O)[C@@H](C2)N(CC2CC2)CC[C@]314)C[C@@]1(O)[C@H]2Cc3ccc(O)c4c3[C@@]1(CCN2CC1CC1)[C@H]5O4 [norBNI]
norBNI 10 mg/kg i.p. weekly with nalmefene 0.01 mg/kg i.p. daily
  effect on nalmefene-mediated recovery from paralysis: abolishes the ability of nalmefene to enable full recovery from paralysis; also recorded: abolishes the ability of nalmefene to enable and sustain recovery from paralysis
